According to PubChem BioAssay (NCI):
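The compound was tested at five concentrations on cells cultured in 96-well plates, with a 48-hour exposure period. GI50 = concentration required for 50% inhibition of growth. The concentration for full growth arrest is given as TGI.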

Columns and labels:
Test in all cases: growth of human tumour cells (NCI), 48 h
786-0 renal = test system: 786-0 renal
A498 renal = test system: A498 renal
A549 NSCLC = test system: A549 NSCLC
ACHN renal = test system: ACHN renal
BT-549 breast = test system: BT-549 breast
CAKI-1 renal = test system: CAKI-1 renal
CCRF-CEM leukemia = test system: CCRF-CEM leukemia
COLO 205 colon = test system: COLO 205 colon
DU-145 prostate = test system: DU-145 prostate
EKVX NSCLC = test system: EKVX NSCLC
HCC-2998 colon = test system: HCC-2998 colon
HCT-116 colon = test system: HCT-116 colon
HCT-15 colon = test system: HCT-15 colon
HL-60(TB) leukemia = test system: HL-60(TB) leukemia
HOP-62 NSCLC = test system: HOP-62 NSCLC
HOP-92 NSCLC = test system: HOP-92 NSCLC
HS 578T breast = test system: HS 578T breast
HT29 colon = test system: HT29 colon
IGROV1 ovarian = test system: IGROV1 ovarian
K-562 leukemia = test system: K-562 leukemia
KM12 colon = test system: KM12 colon
LOX IMVI melanoma = test system: LOX IMVI melanoma
M14 melanoma = test system: M14 melanoma
MALME-3M melanoma = test system: MALME-3M melanoma
MCF7 breast = test system: MCF7 breast
MDA-MB-231 breast = test system: MDA-MB-231 breast
MDA-MB-435 = test system: MDA-MB-435
MOLT-4 leukemia = test system: MOLT-4 leukemia
NCI-H226 lung = test system: NCI-H226 lung
NCI-H23 lung = test system: NCI-H23 lung
NCI-H522 lung = test system: NCI-H522 lung
NCI/ADR-RES ovarian = test system: NCI/ADR-RES ovarian
OVCAR-3 ovarian = test system: OVCAR-3 ovarian
OVCAR-4 ovarian = test system: OVCAR-4 ovarian
OVCAR-5 ovarian = test system: OVCAR-5 ovarian
OVCAR-8 ovarian = test system: OVCAR-8 ovarian
PC-3 prostate = test system: PC-3 prostate
RPMI-8226 leukemia = test system: RPMI-8226 leukemia
RXF 393 renal = test system: RXF 393 renal
SF-268 CNS = test system: SF-268 CNS
SF-295 CNS = test system: SF-295 CNS
SF-539 CNS = test system: SF-539 CNS
SK-MEL-2 melanoma = test system: SK-MEL-2 melanoma
SK-MEL-28 melanoma = test system: SK-MEL-28 melanoma
SK-MEL-5 melanoma = test system: SK-MEL-5 melanoma
SK-OV-3 ovarian = test system: SK-OV-3 ovarian
SN12C renal = test system: SN12C renal
SNB-19 CNS = test system: SNB-19 CNS
SNB-75 CNS = test system: SNB-75 CNS
SR leukemia = test system: SR leukemia
SW-620 colon = test system: SW-620 colon
T-47D breast = test system: T-47D breast
TK-10 renal = test system: TK-10 renal
U251 CNS = test system: U251 CNS
UACC-257 melanoma = test system: UACC-257 melanoma
UACC-62 melanoma = test system: UACC-62 melanoma
UO-31 renal = test system: UO-31 renal
NCI-H460 lung = test system: NCI-H460 lung

c1ccc(-c2ccc(-c3ccc(C4=NCCN4)cc3)o2)cc1
TGI (786-0 renal): 3.1 µM
TGI (A498 renal): 3.65 µM
TGI (A549 NSCLC): 7.8 µM
TGI (ACHN renal): 7.97 µM
TGI (BT-549 breast): 17.3 µM
TGI (CAKI-1 renal): 5.36 µM
TGI (CCRF-CEM leukemia): 4.46 µM
TGI (COLO 205 colon): 3.31 µM
TGI (DU-145 prostate): 10.3 µM
TGI (EKVX NSCLC): 10.8 µM
TGI (HCC-2998 colon): 2.81 µM
TGI (HCT-116 colon): 3.42 µM
TGI (HCT-15 colon): 4.19 µM
TGI (HL-60(TB) leukemia): 3.74 µM
TGI (HOP-62 NSCLC): 12.3 µM
TGI (HOP-92 NSCLC): 5.03 µM
TGI (HS 578T breast): 2.8 µM
TGI (HT29 colon): 4.94 µM
TGI (IGROV1 ovarian): 7.52 µM
TGI (K-562 leukemia): 3.44 µM
TGI (KM12 colon): 4.43 µM
TGI (LOX IMVI melanoma): 4.01 µM
TGI (M14 melanoma): 3.1 µM
TGI (MALME-3M melanoma): 2.17 µM
TGI (MCF7 breast): 3.68 µM
TGI (MDA-MB-231 breast): 3.89 µM
TGI (MDA-MB-435): 3.84 µM
TGI (MOLT-4 leukemia): 4.59 µM
TGI (NCI-H226 lung): 6.15 µM
TGI (NCI-H23 lung): 17.5 µM
TGI (NCI-H522 lung): 4.21 µM
TGI (NCI/ADR-RES ovarian): 19.7 µM
TGI (OVCAR-3 ovarian): 18 µM
TGI (OVCAR-4 ovarian): 15 µM
TGI (OVCAR-5 ovarian): 7.9 µM
TGI (OVCAR-8 ovarian): 15.2 µM
TGI (PC-3 prostate): 5.54 µM
TGI (RPMI-8226 leukemia): 2.88 µM
TGI (RXF 393 renal): 6.53 µM
TGI (SF-268 CNS): 8.4 µM
TGI (SF-295 CNS): 3.82 µM
TGI (SF-539 CNS): 4.4 µM
TGI (SK-MEL-2 melanoma): 3.51 µM
TGI (SK-MEL-28 melanoma): 3.75 µM
TGI (SK-MEL-5 melanoma): 3.92 µM
TGI (SK-OV-3 ovarian): 11.5 µM
TGI (SN12C renal): 11.4 µM
TGI (SNB-19 CNS): 6.3 µM
TGI (SNB-75 CNS): 5.17 µM
TGI (SR leukemia): 7.43 µM
TGI (SW-620 colon): 4.42 µM
TGI (T-47D breast): 7.06 µM
TGI (TK-10 renal): 11.4 µM
TGI (U251 CNS): 3.93 µM
TGI (UACC-257 melanoma): 4.89 µM
TGI (UACC-62 melanoma): 3.2 µM
TGI (UO-31 renal): 3.14 µM

O=C(c1ccccc1)N(C(=S)NCCc1ccc(Cl)cc1)c1ccc(Cl)cc1
GI50 (786-0 renal): 14.7 µM
TGI (786-0 renal): 28.6 µM
GI50 (A498 renal): 16.3 µM
TGI (A498 renal): 30.7 µM
GI50 (A549 NSCLC): 19.4 µM
TGI (A549 NSCLC): 49.9 µM
GI50 (ACHN renal): 5.68 µM
TGI (ACHN renal): 17.4 µM
GI50 (BT-549 breast): 11.8 µM
TGI (BT-549 breast): 25.8 µM
GI50 (CAKI-1 renal): 5.48 µM
TGI (CAKI-1 renal): 20.9 µM
GI50 (CCRF-CEM leukemia): 2.59 µM
TGI (CCRF-CEM leukemia): 10.7 µM
GI50 (COLO 205 colon): 6.83 µM
TGI (COLO 205 colon): 23.1 µM
GI50 (DU-145 prostate): 5.22 µM
TGI (DU-145 prostate): 16.7 µM
GI50 (EKVX NSCLC): 17.4 µM
TGI (EKVX NSCLC): 38.8 µM
GI50 (HCC-2998 colon): 8.54 µM
TGI (HCC-2998 colon): 22.6 µM
GI50 (HCT-116 colon): 7.11 µM
TGI (HCT-116 colon): 23.7 µM
GI50 (HCT-15 colon): 3.57 µM
TGI (HCT-15 colon): 14.4 µM
GI50 (HL-60(TB) leukemia): 6.77 µM
TGI (HL-60(TB) leukemia): > 100 µM
GI50 (HOP-62 NSCLC): 20.2 µM
TGI (HOP-62 NSCLC): 37.9 µM
GI50 (HOP-92 NSCLC): 7.3 µM
TGI (HOP-92 NSCLC): 21 µM
GI50 (HS 578T breast): 13.8 µM
TGI (HS 578T breast): > 100 µM
GI50 (HT29 colon): 5.3 µM
TGI (HT29 colon): 58.4 µM
GI50 (IGROV1 ovarian): 3.88 µM
TGI (IGROV1 ovarian): 16.2 µM
GI50 (K-562 leukemia): 74.6 µM
TGI (K-562 leukemia): > 100 µM
GI50 (KM12 colon): 4.24 µM
TGI (KM12 colon): 15.3 µM
GI50 (LOX IMVI melanoma): 2.4 µM
TGI (LOX IMVI melanoma): 5.3 µM
GI50 (M14 melanoma): 8.42 µM
TGI (M14 melanoma): 25 µM
GI50 (MALME-3M melanoma): 11.8 µM
TGI (MALME-3M melanoma): 28.6 µM
GI50 (MCF7 breast): 3.58 µM
TGI (MCF7 breast): 19.4 µM
GI50 (MDA-MB-231 breast): 6.95 µM
TGI (MDA-MB-231 breast): 20.4 µM
GI50 (MDA-MB-435): 4.67 µM
TGI (MDA-MB-435): 20.4 µM
GI50 (MOLT-4 leukemia): 3.14 µM
TGI (MOLT-4 leukemia): > 100 µM
GI50 (NCI-H226 lung): 16.7 µM
TGI (NCI-H226 lung): 39.4 µM
GI50 (NCI-H23 lung): 13 µM
TGI (NCI-H23 lung): 31.4 µM
GI50 (NCI-H460 lung): 19.4 µM
TGI (NCI-H460 lung): 42.4 µM
GI50 (NCI-H522 lung): 8.3 µM
TGI (NCI-H522 lung): 22.9 µM
GI50 (NCI/ADR-RES ovarian): 16.2 µM
TGI (NCI/ADR-RES ovarian): 30.9 µM
GI50 (OVCAR-3 ovarian): 3.75 µM
TGI (OVCAR-3 ovarian): 13.3 µM
GI50 (OVCAR-4 ovarian): 13.7 µM
TGI (OVCAR-4 ovarian): 29.3 µM
GI50 (OVCAR-5 ovarian): 19.6 µM
TGI (OVCAR-5 ovarian): 36.4 µM
GI50 (OVCAR-8 ovarian): 19.1 µM
TGI (OVCAR-8 ovarian): 35.3 µM
GI50 (PC-3 prostate): 6.94 µM
TGI (PC-3 prostate): 26.2 µM
GI50 (RPMI-8226 leukemia): 2.08 µM
TGI (RPMI-8226 leukemia): 5.66 µM
GI50 (RXF 393 renal): 12.8 µM
TGI (RXF 393 renal): 28.6 µM
GI50 (SF-268 CNS): 5.67 µM
TGI (SF-268 CNS): 18.4 µM
GI50 (SF-295 CNS): 14.6 µM
TGI (SF-295 CNS): 31.9 µM
GI50 (SF-539 CNS): 5.93 µM
TGI (SF-539 CNS): 19.1 µM
GI50 (SK-MEL-2 melanoma): 20.2 µM
TGI (SK-MEL-2 melanoma): 36.4 µM
GI50 (SK-MEL-28 melanoma): 12.7 µM
TGI (SK-MEL-28 melanoma): 27 µM
GI50 (SK-OV-3 ovarian): 18.3 µM
TGI (SK-OV-3 ovarian): 32.8 µM
GI50 (SN12C renal): 7.45 µM
TGI (SN12C renal): 20.7 µM
GI50 (SNB-19 CNS): 15.9 µM
TGI (SNB-19 CNS): 30.1 µM
GI50 (SNB-75 CNS): 13.5 µM
TGI (SNB-75 CNS): 27.9 µM
GI50 (SR leukemia): 5.54 µM
TGI (SR leukemia): > 100 µM
GI50 (SW-620 colon): 4.49 µM
TGI (SW-620 colon): 16.7 µM
GI50 (T-47D breast): 6.24 µM
TGI (T-47D breast): 25.3 µM
GI50 (TK-10 renal): 5.67 µM
TGI (TK-10 renal): 19.7 µM
GI50 (U251 CNS): 4.38 µM
TGI (U251 CNS): 14.9 µM
GI50 (UACC-257 melanoma): 18.2 µM
TGI (UACC-257 melanoma): 34.6 µM
GI50 (UACC-62 melanoma): 11.4 µM
TGI (UACC-62 melanoma): 23.8 µM
GI50 (UO-31 renal): 2.61 µM
TGI (UO-31 renal): 8.85 µM
